What was measured:
Testpflanzen [1] = assay: Post-emergence test (herbicidal damage to test plants); type: in vivo; conditions: plants 5 - 15 cm, 2000 l Wasser/ha, damage rated after three weeks, compared with Vergleichssubstanz (A) (Oxadiazone/Ronstar)
Description: Lösungsmittel: 5 Gewichtsteil Aceton Emulgator: 1 Gewichtsteil Alkylarylpolyglykolether
(§1) Zur Herstellung einer zweckmäßigen Wirkstoffzubereitung vermischt man 1 Gewichtsteil Wirkstoff mit der angegebenen Menge Lösungsmittel, gibt die angegebene Menge Emulgator zu und verdünnt das Konzentrat mit Wasser auf die gewünschte Konzentration.
Mit der Wirkstoffzubereitung spritzt man Testpflanzen, welche eine Höhe von 5 - 15 cm haben so, daß die jeweils gewünschten Wirkstoffmengen pro Flächeneinheit ausgebracht werden. Die Konzentration der Spritzbrühe wird so gewählt, daß in 2000 l Wasser/ha die jeweils gewünschten Wirkstoffmengen ausgebracht werden. Nach drei Wochen wird der Schädigungsgrad der Pflanzen bonitiert in % Schädigung im Vergleich zur Entwicklung der unbehandelten Kontrolle.
Es bedeuten: 0 % = keine Wirkung (wie unbehandelte Kontrolle) 100 % = totale Vernichtung

Testpflanzen [2] = assay: Pre-emergence test (herbicidal damage to test plants); type: in vivo; conditions: damage rated after three weeks against untreated control, compared with Vergleichssubstanz (A) (Oxadiazone/Ronstar)
Description: Lösungsmittel: 5 Gewichtsteile Aceton Emulgator: 1 Gewichtsteil Alkylarylpolyglykolether
as §1
Samen der Testpflanzen werden in normalen Boden ausgesät und nach 24 Stunden mit der Wirkstoffzubereitung begossen. Dabei hält man die Wassermenge pro Flächeneinheit zweckmäßigerweise konstant. Die Wirkstoffkonzentration in der Zubereitung spielt keine Rolle, entscheidend ist nur die Aufwandmenge des Wirkstoffs pro Flächeneinheit. Nach drei Wochen wird der Schädigungsgrad der Pflanzen bonitiert in % Schädigung im Vergleich zur Entwicklung der unbehandelten Kontrolle. Es bedeuten: 0 % = keine Wirkung (wie unbehandelte Kontrolle) 100 % = totale Vernichtung

| Molecule | Wirksamkeit gegenüber der Vergleichssubstanz (A) (Testpflanzen [1]) | Wirksamkeit gegenüber der Vergleichssubstanz (A) (Testpflanzen [2]) |
| --- | --- | --- |
| 2-(3,4-Dihydro-3-oxo-4-propargyl-2H-1,4-benzoxazinyl)-3-chloro-4,5,6,7-tetrahydro-2H-indazol [Beispiel 31] | deutliche Überlegenheit | deutliche Überlegenheit |
| CC(C)(C)c1nn(-c2cc3c(cc2F)OCC(=O)N3)c(=O)o1 [Beispiel 3, 7-Fluor-6-(2-tert-butyl-5-oxo-4,5-dihydro-1H-1,3,4-oxadiazol-3-yl)-3,4-dihydro-3-oxo-2H-1,4-benzoxazin] | deutliche Überlegenheit | deutliche Überlegenheit |
| C#CCN1C(=O)COc2cc(F)c(-n3nc(C(C)(C)C)oc3=O)cc21 [Beispiel 5, 7-Fluor-4-propargyl-6-(2-tert-butyl-5-oxo-4,5-dihydro-1H-1,3,4-oxadiazol-3-yl)-3,4-dihydro-3-oxo-2H-1,4-benzoxazin] | deutliche Überlegenheit | deutliche Überlegenheit |
| O=C1COc2ccc(-n3nc4c(c3Cl)CCCC4)cc2N1 [Beispiel 30, 2-(3,4-dihydro-3-oxo-2H-1,4-benzoxazinyl)-3-chloro-4,5,6,7-tetrahydro-2H-indazol] | – | deutliche Überlegenheit |
| 7-Fluor-6-trimethylpyrazolyl-4-propargyl-3,4-dihydro-3-oxo-2H-1,4-benzoxazin [Beispiel 4] | deutliche Überlegenheit | deutliche Überlegenheit |
| C#CCN1C(=O)COc2cc(F)c(-n3nc(C)c(Cl)c3C)cc21 [Beispiel 24, 7-Fluor-6-(3,5-dimethyl-4-chlorpyrazol)-4-propargyl-3,4-dihydro-3-oxo-2H-1,4-benzoxazin] | – | deutliche Überlegenheit |

Reference: EP0334055A2, “Substituted benzoxazinones, several processes and intermediates for their preparation and their use as herbicides” (BAYER AG, priority 1988, dated 1989)
